Laboratory results as given in patent US20170334852A1, “CATIONIC LIPID” (Eisai R&D Management Co., Ltd., priority 2014, published 2017).

Columns and labels:
[1] = Particle diameter on storage in sealed vial at 4° C., analysis (7); format: physicochemical; settings: lipid complex stored for a certain period
Method: In the compositions of Examples 46 to 52, each composition was stored in a sealed vial at 4° C. and the particle diameter (Z-average and polydispersity index) before the strorage, after 3 months from the storage and after 6 months from the storage was measured in the same manner as that for the composition of Example 29.

[2] = Particle diameter after mixing, PBS dialysis and storage at 4° C., analysis (9); format: physicochemical; settings: storage period, compared to the composition of Comparative Example 3
Method: In the compositions of Examples 53 and 54 and Comparative Example 3, the particle diameter (Z-average and polydispersity index) was measured immediately after the lipid complex was generated by mixing the siRNA diluent and the lipid solution in the preparation of each composition, after the lipid complex was dialyzed into PBS, and after storage in the sealed vial at 4° C. for 2 months and 6 months, using a particle diameter-measuring device (trade name “Zetasizer Nano ZS”, manufactured by Malvern Instruments Ltd.).

Row | Compound | Increase in particle diameter of the lipid complex during storage (in words) [1] | Increase in particle diameter of the lipid complex during storage (in words) [2]
1 | CCCCCCCCCCC(CCCCCCCCC(=O)OCC(CCC)CC(CCC)CCC)OC(=O)C1CCN(C)CC1 (centres unmarked) [YS-125, 1-((2,4-dipropylheptyl)oxy)-1-oxoicosane-10-yl-1-methylpiperidine-4-carboxylate] | stability is high | –
2 | CCCCCCCCCCC(CCCCCCCCC(=O)OCCC(CCCCC)CCCCC)OC(=O)C1CCN(C)CC1 (centres unmarked) [YS-124, 1-oxo-1-((3-pentyloctyl)oxy)icosane-10-yl-1-methylpiperidine-4-carboxylate] | stability is high | an increase in particle diameter of the lipid complex was suppressed
3 | CCCCCCCCCCC(CCCCCCCCC(=O)OCC(CCCC)CCCCCC)OC(=O)C1CCN(C)CC1 (centres unmarked) [YS-120, 1-((2-butyloctyl)oxy)-1-oxoicosane-10-yl-1-methylpiperidine-4-carboxylate] | stability is high | an increase in particle diameter of the lipid complex was suppressed
4 | CCCCC/C=C\C(CCCC)COC(=O)CCCCCCCCC(CCCCCCCCCC)OC(=O)C1CCN(C)CC1 (centres unmarked) [YS-122, (Z)-1-((2-butylnon-3-en-1-yl)oxy)-1-oxoicosane-10-yl-1-methylpiperidine-4-carboxylate] | stability is high | –
5 | CCCCCCCCCCC(CCCCCCCCC(=O)OC/C=C\CC(CCC)CCCC)OC(=O)C1CCN(C)CC1 (centres unmarked) [YS-123, (Z)-1-oxo-1-((5-propylnon-2-en-1-yl)oxy)icosane-10-yl-1-methylpiperidine-4-carboxylate] | stability is high | –
6 | CCCCCCCCCCC(CCCCCCCCC(=O)OCCC(CCC)C(CCC)CCC)OC(=O)C1CCN(C)CC1 (centres unmarked) [YS-126, 1-((3,4-dipropylheptyl)oxy)-1-oxoicosane-10-yl-1-methylpiperidine-4-carboxylate] | stability is high | –
